Laboratory results published in patent US20120252801A1, “ANTIFUNGAL COMPOUNDS” (Katholieke Universiteit Leuven, K.U.Leuven R&D, priority 2009, published 2012).
≈ marks a conversion by molar mass, not a printed value.

Key:
[1] = tested on: C. albicans SC5314; test: Minimal fungicidal concentration (MFC) against C. albicans; assay type: cell-based; conditions: Candida albicans, 24 h at 37° C. in PBS, less than 1% survival relative to DMSO control
Protocol: (§1) Two-fold dilution series of the compounds were prepared in 50% DMSO. 5 μl of these series were added to 95 μl PBS buffer inoculated with 1/500 cells of an overnight culture of either C. albicans, C. glabrata or C. krusei (final DMSO conc 2%). 2% DMSO served as negative control. After 24 h incubation at 37° C. of these cultures with the antifungal compounds in PBS, the cell cultures were plated on YPD agar and colony forming units (CFUs) were determined after incubation of the plates for 2 days. MFC was determined as the minimal concentration of a compound resulting in less than 1% survival of the yeast culture relative to the DMSO control.

[2] = tested on: C. glabrata; test: Minimal fungicidal concentration (MFC) against C. glabrata; assay type: cell-based, Candida glabrata; conditions: Nakaseomyces glabratus; 24 h at 37° C. in PBS; less than 1% survival relative to DMSO control
Protocol: as §1

[3] = tested on: A. fumigatus; test: Minimal inhibitory concentration (MIC) against A. fumigatus; assay type: cell-based; conditions: Aspergillus fumigatus; minimal concentration that inhibits growth
[4] = tested on: Aspergillus flavus; test: Minimal inhibitory concentration (MIC) against A. flavus; assay type: cell-based; conditions: 24 h at 25° C. in ½ PDB, minimal concentration that inhibits growth
Protocol: (§2) To determine the MIC and MFC of a compound against Aspergillus flavus, Fusarium oxysporum or F. culmorum, a 2-fold dilution series of the compounds of the invention was incubated with the corresponding spore suspension in ½ PDB (potato dextrose broth, Difco) (2×10^4 spores/ml). […] MFC was determined as the minimal concentration of a compound resulting in less than 1% survival of the fungal culture relative to the DMSO control.

[5] = tested on: Fusarium oxysporum; test: Minimal inhibitory concentration (MIC) against F. oxysporum; assay type: cell-based; conditions: 24 h at 25° C. in ½ PDB, minimal concentration that inhibits growth
Protocol: as §2

[6] = tested on: HepG2 cells; test: Cellular cytostatic and/or cytotoxic effect on HepG2 cells; assay type: cell-based
Protocol: Evaluation of the cytostatic and/or cytotoxic effect of compounds on certain specific eukaryotic cells is a standard procedure and well known to the person skilled in the art. The effect of a selection of compounds of the invention on the proliferation of HepG2 cells was measured.

CCN1CC(C)(C)OC(=O)C1CC(=O)Nc1ccc2c(ccn2C)c1 (stereo not drawn) [CPD-07, 2-(4-ethyl-6,6-dimethyl-2-oxomorpholin-3-yl)-N-(1-methyl-1H-indol-5-yl)acetamide]
MFC [1]: 12.5 µg/mL (≈ 36.4 µM) | MFC [2]: 50 µg/mL (≈ 146 µM) | MIC [3]: 3.12 µg/mL (≈ 9.1 µM) | MIC [4]: 25 µg/mL (≈ 72.8 µM) | MIC [5]: 50 µg/mL (≈ 146 µM) | LD30 48 h (lethal dose for 30% of the cells in culture) [6]: >25 µM

CCN1CC(C)(C)OC(=O)C1CC(=O)NCc1ccc(Cl)cc1 (stereo not drawn) [CPD-08, N-(4-chlorobenzyl)-2-(4-ethyl-6,6-dimethyl-2-oxomorpholin-3-yl)acetamide]
MFC [1]: 12.5 µg/mL (≈ 36.9 µM) | MFC [2]: 12.5 µg/mL (≈ 36.9 µM) | MIC [3]: 6.25 µg/mL (≈ 18.4 µM) | MIC [4]: 25 µg/mL (≈ 73.8 µM) | MIC [5]: 50 µg/mL (≈ 148 µM) | LD30 48 h (lethal dose for 30% of the cells in culture) [6]: >25 µM

CCN1CC(C)(C)OC(=O)C1CC(=O)NCCc1ccccc1 (stereo not drawn) [CPD-18, 2-(4-ethyl-6,6-dimethyl-2-oxomorpholin-3-yl)-N-phenethylacetamide]
MFC [1]: 25 µg/mL (≈ 78.5 µM) | MFC [2]: 50 µg/mL (≈ 157 µM) | MIC [3]: 6.25 µg/mL (≈ 19.6 µM) | MIC [4]: 25 µg/mL (≈ 78.5 µM) | MIC [5]: > 50 µg/mL

CCN1CC(C)(C)OC(=O)C1CC(=O)NCc1cccs1 (stereo not drawn) [CPD-22, 2-(4-ethyl-6,6-dimethyl-2-oxomorpholin-3-yl)-N-(thiophen-2-ylmethyl)acetamide]
MFC [1]: 25 µg/mL (≈ 80.5 µM) | MFC [2]: 50 µg/mL (≈ 161 µM) | MIC [3]: 25 µg/mL (≈ 80.5 µM) | MIC [4]: 50 µg/mL (≈ 161 µM) | MIC [5]: 50 µg/mL (≈ 161 µM) | LD30 48 h (lethal dose for 30% of the cells in culture) [6]: >25 µM

CCN1CC(C)(C)OC(=O)C1CC(=O)NCc1ccco1 (stereo not drawn) [CPD-23, 2-(4-ethyl-6,6-dimethyl-2-oxomorpholin-3-yl)-N-(furan-2-ylmethyl)acetamide]
MFC [1]: 50 µg/mL (≈ 170 µM) | MFC [2]: > 50 µg/mL | MIC [3]: 25 µg/mL (≈ 84.9 µM) | MIC [4]: 50 µg/mL (≈ 170 µM) | MIC [5]: 50 µg/mL (≈ 170 µM)

CCCNC(=O)CC1C(=O)OC(C)(C)CN1CC (stereo not drawn) [CPD-36, 2-(4-ethyl-6,6-dimethyl-2-oxomorpholin-3-yl)-N-propylacetamide]
MFC [1]: 25 µg/mL (≈ 97.5 µM) | MFC [2]: > 50 µg/mL | MIC [3]: 50 µg/mL (≈ 195 µM) | MIC [4]: > 50 µg/mL | MIC [5]: > 50 µg/mL

CCN1CC(C)(C)OC(=O)C1CC(=O)NCCC(C)(C)C (stereo not drawn) [CPD-38, N-(3,3-dimethylbutyl)-2-(4-ethyl-6,6-dimethyl-2-oxomorpholin-3-yl)acetamide]
MFC [1]: 25 µg/mL (≈ 83.8 µM) | MFC [2]: 12.5 µg/mL (≈ 41.9 µM) | MIC [3]: 50 µg/mL (≈ 168 µM) | MIC [4]: 50 µg/mL (≈ 168 µM) | MIC [5]: 50 µg/mL (≈ 168 µM)

CCN1CC(C)(C)OC(=O)C1CC(=O)NCC(F)(F)F (stereo not drawn) [CPD-39, 2-(4-ethyl-6,6-dimethyl-2-oxomorpholin-3-yl)-N-(2,2,2-trifluoroethyl)acetamide]
MFC [1]: 50 µg/mL (≈ 169 µM) | MFC [2]: > 50 µg/mL | MIC [3]: 25 µg/mL (≈ 84.4 µM) | MIC [4]: > 50 µg/mL | MIC [5]: > 50 µg/mL

CCN1CC(C)(C)OC(=O)C1CC(=O)NCC1CCCCC1 (stereo not drawn) [CPD-47, N-(cyclohexylmethyl)-2-(4-ethyl-6,6-dimethyl-2-oxomorpholin-3-yl)acetamide]
MFC [1]: 25 µg/mL (≈ 80.5 µM) | MFC [2]: 6.25 µg/mL (≈ 20.1 µM) | MIC [3]: 25 µg/mL (≈ 80.5 µM) | MIC [4]: 50 µg/mL (≈ 161 µM) | MIC [5]: > 50 µg/mL

CCN1CC(C)(C)OC(=O)C1CC(=O)NCc1cccc(Cl)c1 (stereo not drawn) [CPD-49, N-(3-chlorobenzyl)-2-(4-ethyl-6,6-dimethyl-2-oxomorpholin-3-yl)acetamide]
MFC [1]: 6.25 µg/mL (≈ 18.4 µM) | MFC [2]: 6.25 µg/mL (≈ 18.4 µM) | MIC [3]: 3.12 µg/mL (≈ 9.22 µM) | MIC [4]: 50 µg/mL (≈ 148 µM) | MIC [5]: 50 µg/mL (≈ 148 µM) | LD30 48 h (lethal dose for 30% of the cells in culture) [6]: >25 µM

CCN1CC(C)(C)OC(=O)C1CC(=O)NCc1ccc(Cl)c(Cl)c1 (stereo not drawn) [CPD-50, N-(3,4-dichlorobenzyl)-2-(4-ethyl-6,6-dimethyl-2-oxomorpholin-3-yl)acetamide]
MFC [1]: 12.5 µg/mL (≈ 33.5 µM) | MFC [2]: 3.12 µg/mL (≈ 8.36 µM) | MIC [3]: 1.6 µg/mL (≈ 4.29 µM) | MIC [4]: 6.25 µg/mL (≈ 16.7 µM) | MIC [5]: 25 µg/mL (≈ 67 µM)

CCN1CC(C)(C)OC(=O)C1CC(=O)NCc1c(Cl)cccc1Cl (stereo not drawn) [CPD-51, N-(2,6-dichlorobenzyl)-2-(4-ethyl-6,6-dimethyl-2-oxomorpholin-3-yl)acetamide]
MFC [1]: 12.5 µg/mL (≈ 33.5 µM) | MFC [2]: 25 µg/mL (≈ 67 µM) | MIC [3]: 12.5 µg/mL (≈ 33.5 µM) | MIC [4]: 50 µg/mL (≈ 134 µM) | MIC [5]: 50 µg/mL (≈ 134 µM) | LD30 48 h (lethal dose for 30% of the cells in culture) [6]: >25 µM

CC(C)c1ccc(NC(=O)CC2C(=O)OC(C)(C)CN2S(C)(=O)=O)cc1 (stereo not drawn) [CPD-75, 2-(6,6-dimethyl-4-(methylsulfonyl)-2-oxomorpholin-3-yl)-N-(4-isopropylphenyl)acetamide]
MFC [1]: > 25 µg/mL | MFC [2]: > 25 µg/mL | MIC [3]: 12.5 µg/mL (≈ 32.7 µM) | MIC [4]: > 25 µg/mL | MIC [5]: > 25 µg/mL

CCN1CC(C)(C)OC(=O)C1CC(=O)NCc1ccc(C)cc1 (stereo not drawn) [CPD-76, 2-(4-ethyl-6,6-dimethyl-2-oxomorpholin-3-yl)-N-(4-methylbenzyl)acetamide]
MFC [1]: 25 µg/mL (≈ 78.5 µM) | MFC [2]: 6.25 µg/mL (≈ 19.6 µM) | MIC [3]: 3.12 µg/mL (≈ 9.81 µM) | MIC [4]: 25 µg/mL (≈ 78.5 µM) | MIC [5]: > 25 µg/mL

CCN1CC(C)(C)OC(=O)C1CC(=O)NCc1ccccc1C(F)(F)F (stereo not drawn) [CPD-77, 2-(4-ethyl-6,6-dimethyl-2-oxomorpholin-3-yl)-N-(2-(trifluoromethyl)benzyl)acetamide]
MFC [1]: 25 µg/mL (≈ 67.1 µM) | MFC [2]: 12.5 µg/mL (≈ 33.6 µM) | MIC [3]: 3.12 µg/mL (≈ 8.39 µM) | MIC [4]: 25 µg/mL (≈ 67.1 µM) | MIC [5]: 25 µg/mL (≈ 67.1 µM)

CCN1CC(C)(C)OC(=O)C1CC(=O)NCc1cccc(C(F)(F)F)c1 (stereo not drawn) [CPD-78, 2-(4-ethyl-6,6-dimethyl-2-oxomorpholin-3-yl)-N-(3-(trifluoromethyl)benzyl)acetamide]
MFC [1]: 25 µg/mL (≈ 67.1 µM) | MFC [2]: 12.5 µg/mL (≈ 33.6 µM) | MIC [3]: 6.25 µg/mL (≈ 16.8 µM) | MIC [4]: > 25 µg/mL | MIC [5]: > 25 µg/mL

CCN1CC(C)(C)OC(=O)C1CC(=O)NCc1ccccc1OC (stereo not drawn) [CPD-79, 2-(4-ethyl-6,6-dimethyl-2-oxomorpholin-3-yl)-N-(2-methoxybenzyl)acetamide]
MFC [1]: > 25 µg/mL | MFC [2]: 25 µg/mL (≈ 74.8 µM) | MIC [3]: 12.5 µg/mL (≈ 37.4 µM) | MIC [4]: > 25 µg/mL | MIC [5]: > 25 µg/mL

CCN1CC(C)(C)OC(=O)C1CC(=O)NCc1cccc(OC)c1 (stereo not drawn) [CPD-80, 2-(4-ethyl-6,6-dimethyl-2-oxomorpholin-3-yl)-N-(3-methoxybenzyl)acetamide]
MFC [1]: 25 µg/mL (≈ 74.8 µM) | MFC [2]: 12.5 µg/mL (≈ 37.4 µM) | MIC [3]: 6.25 µg/mL (≈ 18.7 µM) | MIC [4]: > 25 µg/mL | MIC [5]: > 25 µg/mL

CCN1CC(C)(C)OC(=O)C1CC(=O)NCc1ccccc1-c1ccccc1 (stereo not drawn) [CPD-81, N-(biphenyl-2-ylmethyl)-2-(4-ethyl-6,6-dimethyl-2-oxomorpholin-3-yl)acetamide]
MFC [1]: 12.5 µg/mL (≈ 32.9 µM) | MFC [2]: 12.5 µg/mL (≈ 32.9 µM) | MIC [3]: 3.12 µg/mL (≈ 8.21 µM) | MIC [4]: 25 µg/mL (≈ 65.7 µM) | MIC [5]: 25 µg/mL (≈ 65.7 µM)

CCN1CC(C)(C)OC(=O)C1CC(=O)NCc1cccc(-c2ccccc2)c1 (stereo not drawn) [CPD-82, N-(biphenyl-3-ylmethyl)-2-(4-ethyl-6,6-dimethyl-2-oxomorpholin-3-yl)acetamide]
MFC [1]: 12.5 µg/mL (≈ 32.9 µM) | MFC [2]: 12.5 µg/mL (≈ 32.9 µM) | MIC [3]: 3.12 µg/mL (≈ 8.21 µM) | MIC [4]: 25 µg/mL (≈ 65.7 µM) | MIC [5]: 25 µg/mL (≈ 65.7 µM)
